# Experimental data: patent publication US20250011790A1, “COMBINED TARGETING OF STAT3 AND ULKI TO TREAT GLIOBLASTOMA” (Vanderbilt University, priority 2021, published 2025)
# Experiments:
# [1] = tested on: autophagy; details: cited from earlier work
# [2] = tested on: mTORC1 and AMPK; details: cited from earlier work
# [3] = tested on: mTORC1; assay: Western blot of mTOR S2448 and S6 phosphorylation in MT330 cells; assay type: cell-based
# Protocol: (§1) FIGS. 3B and 3C show quantification of LC3-II/Actin ratio (FIG. 3B) and p62/Actin ratio (FIG. 3C). […] Cell lysates were immunoblotted with the indicated antibodies and beta actin was used as an internal loading control. […] Cell lysates were analyzed by Western blotting using antibodies specific for STAT3, Prom1 and LC3-I/II.
# (§2) Total cell lysates were immunoblotted with indicated antibodies with p-Actin serving as a loading control. FIGS. 6B to 6E show quantification of the ratio of phospho- and total-ATG14 (FIG. 6B); phospho- and total-Beclin1 (FIG. 6C); phospho- and total-ULK1 (FIG. 6D); and LC3-II and Actin (FIG. 6E).
# (§3) Cell lysates were prepared using mammalian protein extraction buffer (Cell Signaling Technology) and a protease inhibitor cocktail followed by SDS-PAGE. Proteins were transferred to Immobilon-P membranes (Millipore Bedford) and probed with primary antibodies overnight at 4° C. in TBS buffer containing 0.1% Tween-20 and 5% nonfat dry milk (Bio-Rad). Membranes were subsequently incubated with horseradish peroxidase-conjugated secondary antibodies at room temperature for 1 h, and the immunocomplexes were visualized by the ECL detection system (Perkin Elmer) quantified on the Azure Biosystems C500. Membranes were stripped and re-probed for actin or GAPDH as loading controls. Representative Western blots from three experiments are shown. Densitometric analysis of all Western blots was performed using Image J software.
# [4] = tested on: MT330 cells; assay: Cell death ELISA (DNA fragmentation) in MT330 cells; assay type: cell-based; details: STAT3-KO and mutant expressing cells vs control cells, MRT68921 20 μM, 5 h
# Protocol: as §2
# (§4) ULK1 knockdown was verified by Western blotting with ULK1 and phospho-ULK1, and cell lysates were analysed for LC3, cleaved caspase-3 with p-Actin as a loading control. FIGS. 7B to 7D show quantification of the ratio of total-ULK1 and Actin (FIG. 7B); LC3-II and Actin (FIG. 7C); active caspase-3 and Actin (FIG. 7D).
# The quantitative DNA fragmentation assay was performed using a cell death ELISA kit as described earlier (Bhattacharya S, et al. Apoptosis. 2014 19(3):451-466). […] Cells were lysed, and an aliquot of the nuclei-free supernatant was placed in streptavidin-coated plates and incubated with anti-histone biotin and anti-DNA peroxidase-conjugated antibodies for 2 h at room temperature. After incubation, the samples were aspirated, and the wells were washed 3 times with incubation buffer. […] The absorbance was read at 405 nm using the SpectraMax iD3 microplate reader (Molecular Devices). Results were expressed as absorbance at 405 nm/mg protein/min.
# [5] = tested on: MT330 cells; assay: Caspase-3 cleavage Western blot (apoptosis) in MT330 cells; assay type: cell-based; details: MRT68921 20 μM, 5 h
# Protocol: as §2, §4
# as §3, with “Densitometric analysis of all Western blots was performed using Image J software.” left out
# [6] = tested on: MT330 cells; assay: Western blot of LC3-II and p62 (autophagy flux) in MT330 cells; assay type: cell-based
# Protocol: FIGS. 3A to 3H show STAT3-KO activates autophagy through mTOR-independent but Prom1-dependent signalling pathways in MT330 cells. […] Cell lysates were analysed for LC3-I/II, p62 and CathepsinD.
# as §1, §2, §4, §3
# [7] = tested on: AMPK; details: cited from earlier work
# [8] = tested on: hepatocellular carcinoma (HCC) cells; details: cited from earlier work
# [9] = tested on: MT330 cells; assay: Immunolocalization of LC3 and p62 in MT330 cells; assay type: cell-based
# Protocol: EV MT330 cells, STAT3-KO, STAT3-KO cells rescued with WT-STAT3, were grown on chamber slides, and treated with or without 1 μM Baf for 48 h. Cells were fixed and immunostained for LC3, p62, and counterstained with DAPI, and analysed by confocal microscopy. Scale bar […].
# Cells were cultured in chamber slides (Millipore) to ˜70% confluence and washed with PBS. Cells were fixed in 4% paraformaldehyde and methanol, and permeabilized with 1% Triton X-100. After blocking with 5% goat serum, cells were incubated with anti-rabbit LC3 and anti-mouse p62 antibodies and subsequently stained with Alexa Fluor 488 (goat anti-rabbit) and Alexa Fluor 633 (goat anti-mouse) secondary antibodies, as described previously. 24 DNA was counterstained with Vectashield mounting media with DAPI (Vectra Laboratories). Images were captured on a Zeiss LSM700 laser scanning confocal microscope.
# [10] = biological target: T1, ULK1 (Homo sapiens, UniProt O75385); assay: Western blot of ULK1 signaling (p-ATG14, p-Beclin1, p-ULK1) in MT330 cells; assay type: cell-based; details: Baf 100 nM, 3 h
# T1 sequence (O75385 1-1050): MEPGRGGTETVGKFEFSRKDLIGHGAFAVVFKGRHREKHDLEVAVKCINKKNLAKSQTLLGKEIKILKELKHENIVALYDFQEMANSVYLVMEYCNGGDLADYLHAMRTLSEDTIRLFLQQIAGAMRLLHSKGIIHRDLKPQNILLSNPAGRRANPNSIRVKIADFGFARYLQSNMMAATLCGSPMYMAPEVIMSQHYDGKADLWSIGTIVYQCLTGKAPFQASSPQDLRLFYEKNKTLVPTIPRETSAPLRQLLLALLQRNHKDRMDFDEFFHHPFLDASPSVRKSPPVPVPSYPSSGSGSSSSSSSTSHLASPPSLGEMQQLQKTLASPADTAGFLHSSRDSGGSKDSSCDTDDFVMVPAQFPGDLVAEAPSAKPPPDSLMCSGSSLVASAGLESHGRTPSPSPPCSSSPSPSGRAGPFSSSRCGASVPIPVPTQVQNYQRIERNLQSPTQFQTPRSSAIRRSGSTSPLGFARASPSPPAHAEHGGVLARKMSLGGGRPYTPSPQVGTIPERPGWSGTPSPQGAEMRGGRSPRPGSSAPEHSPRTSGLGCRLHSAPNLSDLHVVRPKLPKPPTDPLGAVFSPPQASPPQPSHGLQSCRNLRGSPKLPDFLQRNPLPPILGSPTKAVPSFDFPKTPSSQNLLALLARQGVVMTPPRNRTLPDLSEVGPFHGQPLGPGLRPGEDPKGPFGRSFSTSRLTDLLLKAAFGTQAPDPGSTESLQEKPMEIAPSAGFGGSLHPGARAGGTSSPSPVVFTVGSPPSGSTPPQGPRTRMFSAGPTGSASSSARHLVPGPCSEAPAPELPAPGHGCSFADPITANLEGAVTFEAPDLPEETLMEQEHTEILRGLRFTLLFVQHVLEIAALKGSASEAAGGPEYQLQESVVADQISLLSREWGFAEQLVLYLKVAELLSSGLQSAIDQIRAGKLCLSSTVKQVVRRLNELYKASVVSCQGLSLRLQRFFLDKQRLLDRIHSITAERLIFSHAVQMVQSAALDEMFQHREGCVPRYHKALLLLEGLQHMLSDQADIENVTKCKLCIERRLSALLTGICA
# [11] = tested on: AMPKα; assay: Western blot of p-AMPKα T172 in MT330 cells; assay type: cell-based; details: Baf 100 nM, 3 h
# Protocol: FIGS. 1A to 1H show STAT3 deletion activates autophagy through AMPKα-ULK1-TSC2 signaling pathways in MT330 cells. […] Untreated (UT) cells served as controls. Total cell lysates were prepared and immunoblotted with indicated antibodies. […] Blots were stripped and probed for total-AMPKα. […] Blots were stripped and probed for total-ULK1. […] Blots were stripped and probed with total-TSC2 antibody.
# as §3
# [12] = EV MT330 cells, Everolimus (RAD001) 10 μM, 3 h
smiles,measurement,setting,value
O=C1Nc2ccc(C(=O)c3ccco3)cc2/C1=C/c1cc(Cl)c(O)c(Cl)c1 [GW406108X],effect on autophagy / autophagic flux,[1],blocks autophagic flux
same,effect on upstream signaling kinases mTORC1 and AMPK,[2],without affecting
CN1CCc2cc(Nc3ncc(C4CC4)c(NCCCNC(=O)C4CCC4)n3)ccc2C1 [MRT68921],mTOR S2448 phosphorylation,"[3]; MT330 cells, MRT68921 20 μM, 5 h",did not significantly block
same,apoptotic cell death (DNA fragmentation) by ELISA,[4],significantly increased apoptosis
same,effect on autophagy / autophagic flux,[1],blocks autophagy flux
same,apoptosis by caspase-3 cleavage,[5]; STAT3-KO and STAT3-mutant expressing lines,induced apoptosis
same,apoptosis by caspase-3 cleavage,[5]; control EV and WT-STAT3 reconstituted cells,not
same,LC3-II levels,"[6]; STAT3-KO cells and Y705F or S727A mutant cells, MRT68921 20 μM, 5 h",significantly increased
same,autophagy flux,"[6]; cells lacking functional STAT3, MRT68921 20 μM ± Baf 100 nM, 5 h",blocks autophagy flux
CCn1c(-c2nonc2N)nc2c(C#CC(C)(C)O)ncc(OC[C@H]3CCCNC3)c21 [GSK690693],IC50,[7],50 nM
"CO[C@H]1C[C@@H]2CC[C@@H](C)[C@@](O)(O2)C(=O)C(=O)N2CCCC[C@H]2C(=O)O[C@H]([C@H](C)C[C@@H]2CC[C@@H](OCCO)[C@H](OC)C2)CC(=O)[C@H](C)/C=C(\C)[C@@H](O)[C@@H](OC)C(=O)[C@H](C)C[C@H](C)/C=C/C=C/C=C/1C [Everolimus, everolimus]",mTOR S2448 phosphorylation,[3]; [12],inhibited
same,pS6K phosphorylation (downstream target of mTORC1),[3]; [12],inhibited
same,autophagy induction (LC3-II/Actin ratio),[6]; [12],no significant effect
same,autophagic flux,"[6]; cells lacking STAT3 and STAT3-KO cells expressing STAT3 phosphodeficient mutants, Everolimus 10 μM ± Baf 100 nM, 3 h",enhances autophagic flux
COC(=O)c1cc2c(OC(C)C)cc(OC(C)C)cc2[nH]1 [XST-14],apoptosis in hepatocellular carcinoma (HCC) cells,[8],induces apoptosis
same,effect on autophagy / autophagic flux,[1],induces autophagy inhibition
Cl.O=C(NCCCNc1nc(Nc2cccc(CN3CCOCC3)c2)ncc1C1CC1)C1CCC1 [MRT67307 hydrochloride],effect on autophagy / autophagic flux,[1],blocks autophagy
"CO/C1=C\C(C)=C\[C@@H](C)[C@@H](O)[C@@H](C)C/C(C)=C/C=C/[C@H](OC)[C@@H]([C@@H](C)[C@@H](O)[C@H](C)[C@@]2(O)C[C@@H](O)[C@H](C)[C@@H](C(C)C)O2)OC1=O [Bafilomycin, Bafilomycin A1]",LC3 and p62 staining,"[9]; EV MT330 cells, Baf 1 μM, 48 h",no effect
same,LC3+ and p62 puncta formation and co-localization,"[9]; STAT3-KO MT330 cells, bafilomycin 48 h",increased
same,ULK1 phosphorylation,[10],no effect
same,LC3-II levels,"[6]; MT330 cells expressing the S727A mutant, Baf 100 nM, 3 h",did not significantly change
same,p62 accumulation,"[6]; STAT3-KO MT330 cells, Baf 100 nM, 3 h",partially increased
same,LC3-II levels,"[6]; STAT3-deleted MT330 cells, Baf 100 nM, 3 h",further increased
same,LC3-II levels,"[6]; control MT330 EV cells, Baf 100 nM, 3 h",no effect
same,AMPKα phosphorylation,[11],no effect
